The test system of one data set is HCV. Kind of data set: Focus reduction assay of HCV infection. The note with it: for inhibition effect towards HCV: summary in words; for inhibition at 100 µg/mL: 100 μg/ml; for Inhibition Rate of the number of Virus foci (%): cells pre-incubated 1 hour with interferon. It counts as cell-based. As to the method: The stock solutions with a concentration of 20 mg/ml were prepared by dissolving the samples in DMSO and were kept at 4° C. When testing, the stored stock solutions were diluted to 5 mg/ml and 2 mg/ml with DMSO.
(§1) The derivative cell line of Huh7 and the virus strain of HCV were used in this experiment. The virus strain can produce high-titer and infectious virus particles of HCV in the cells.
(§2) The cells were inoculated in 96-well flat-bottomed plates at a concentration of 1×10^4/100 μl/well and cultivated overnight. The HCV supernatant was diluted to 1×10^3 ffu/ml with complete medium (DMEM contains 10% fetal bovine serum, 100 U/ml penicillin and 100 μg/ml streptomycin) and infected the cells at 50 ffu/well.
The sample solutions with different concentrations (2 mg/ml and 1 mg/ml) were respectively diluted in complete medium at a volume ratio of 1:50 to reach the concentrations of 40 μg/ml and 20 μg/ml. […] After 1 hour of incubation at room temperature, the culture medium in the 96-well flat-bottomed plates was discarded, then 100 μl of the above mixed solution was added to each well, and then was cultured for 8 hours in 37° C. incubator containing 5% CO2. After that, the supernatant was discarded, then was washed once with phosphate buffer without calcium or magnesium ion (DPBS). 150 μl of fresh complete medium was added to each well, and then was cultured for 64 hours in 37° C. incubator containing 5% CO2. 150 μl of 4% paraformaldehyde (PFA) was added to each well, and was fixed at room temperature for 15 min. The supernatant was discarded, then was washed with DPBS for 3 times, and Immune fluorescence staining was conducted with anti HCV-E2 human monoclonal antibody and anti-human secondary antibody labeled by immunofluorescein, then was watched with fluorescence microscope and the amounts of virus colony were recorded.
In the negative control group, DMSO was used instead of the sample solutions, and other conditions were the same as that in sample testing.
The solution of the interferon was diluted to 5, 50 and 500 IU/ml respectively with complete medium, and were hatched for 1 hour with cells, then diluted virus solution was added. Other conditions were the same as that in the extract testing. The inhibition rate=(the amount of virus colony in the negative control group−the amount of viruscolony in the experimental group)/the amount of virus colony in the negative control group×100%.

The test system of data set [1] is derivative cell line of Huh7. Kind of data set: Cytotoxicity (cell density versus negative control group). Type of data set: cell-based. As to the method: as §1, §2
Instructions to Cytotoxicity: Noncytotoxic=the cell density of the experimental group/the cell density of the negative control group[…] Cytotoxicity=the cell density of the experimental group/the cell density of the negative control group<80%

Setting [2] is: Hepatitis C virus, Huh-7, 5 μg/ml, Huh7 derivative cells, read-out: Inhibition Rate of the number of Virus foci (%).
Setting [3] is: Hepatitis C virus, Huh-7, 20 μg/ml, Huh7 derivative cells, read-out: Inhibition Rate of the number of Virus foci (%).
The mark [4] stands for this setting: Hepatitis C virus, Huh-7, 10 μg/ml, Huh7 derivative cells, read-out: Inhibition Rate of the number of Virus foci (%).
The mark [5] stands for this setting: Hepatitis C virus, Huh-7, read-out: Inhibition Rate of the number of Virus foci (%).
[6] abbreviates: Hepatitis C virus, Huh-7, Huh7 derivative cells, read-out: Inhibition Rate of the number of Virus foci (%).

Consider 14 compounds from patent US8895725B2, “Use of 9, 10-anthraquinone compounds” (Shanghai Institute of Pharmaceutical Industry, priority 2008, dated 2014).

Values after ≈ are worked out from the molar mass of the structure shown. “Also recorded” adds a separate entry of the source. Read-outs that look alike come from different tables or passages of the source.

A word on the IC50: it is the point on the concentration scale where inhibition reaches its midpoint. Higher therefore signals lower potency. For orientation: inhibition means the share of the control response that was lost under treatment.

As for `COc1cc(O)c2c(c1)C(=O)c1cc(C)cc(O)c1C2=O` [Physcion, 1,8-dihydroxyl-3-methoxy-6-methyl anthraquinone], the IC50 with HCV (Hepatitis C virus) turned out to be 8 ng/mL (≈ 0.0281 µM). Also, the inhibition at 5 µg/mL in the data set on HCV (setting [2]) worked out at 100%. Further, the inhibition at 20 µg/mL in the data set with HCV (setting [3]) worked out at 100%. Moreover, in the data set with HCV (ranking in words), the “anti-HCV activity compared with the other compounds” value is recorded as “better than other compounds; also recorded: the best”. Besides, the “inhibition effect towards HCV” value in the data set on HCV is “obvious inhibition effect”. Also, the Cytotoxicity entry in data set [1] (5 μg/ml) and in data set [1] (20 μg/ml) was “None” in each case.

In the case of `O=C1c2cccc(O)c2C(=O)c2c(O)cccc21` [1,8-Dihydroxyl-9,10-anthraquinone, 1,8-dihydroxyl-9,10-anthraquinone], in the data set with HCV (Hepatitis C virus, Huh-7, 0.04 μg/ml, Huh7 derivative cells, read-out: Inhibition Rate of the number of Virus foci (%)), the inhibition at 0.04 µg/mL was 45%. Besides, in the data set on HCV (Hepatitis C virus, Huh-7, 0.2 μg/ml, Huh7 derivative cells, read-out: Inhibition Rate of the number of Virus foci (%)), the inhibition at 0.2 µg/mL was determined as 100%. For the same compound, the “inhibition effect towards HCV” value in the data set with HCV is given as “obvious inhibition effect”.

As for `O=C1c2ccccc2C(=O)c2c1cc(S(=O)(=O)[O-])c(O)c2O.[Na+]` [Alizarin Red S, 1,2-dihydroxylanthraquinone-3-sulfonate], the inhibition at 10 µg/mL in the data set on HCV (setting [4]) came to 22%. For the same compound, the “inhibition effect towards HCV” value with HCV is listed as “obvious inhibition effect”.

In the case of `O=C1c2ccccc2C(=O)c2c(O)ccc(O)c21` [1,4-dihydroxyl-9,10-anthraquinone], the inhibition at 5 µg/mL with HCV (setting [5]) stood at 81%. Moreover, the “inhibition effect towards HCV” value in the data set on HCV is given as “obvious inhibition effect”. For the same compound, in data set [1] (5 μg/ml), the Cytotoxicity entry was “None”.

In the case of `Cc1cc(O[C@@H]2OC(CO)[C@@H](O)C(O)C2O)c2c(c1)C(=O)c1cc(O)cc(O)c1C2=O` (stereo partly drawn) [Emodin-8-O-β-D-glucoside, emodin-8-O-β-D-glucoside], in the data set on HCV (setting [6]), the inhibition at 100 µg/mL is 40%. Also, the “inhibition effect towards HCV” value in the data set on HCV is reported as “obvious inhibition effect”. Further, in data set [1] (100 μg/ml), the Cytotoxicity result was “None”.

For the compound α-interferon [reference compound], the “Inhibition Rate of the number of Virus foci (%)” value in the data set on HCV (5 IU/ml) amounted to 53%; in the data set on HCV (50 IU/ml), 79%; in the data set on HCV (500 IU/ml), 98%.

For `O=C1c2ccccc2C(=O)c2ccccc21` [Anthraquinone, 9,10-anthraquinone], the inhibition at 5 µg/mL in the data set with HCV (setting [2]) worked out at 44%. In addition, the “inhibition effect towards HCV” value with HCV was “obvious inhibition effect”.

On to `O=C(O)c1cc(O)c2c(c1)C(=O)c1cccc(O)c1C2=O` [Rhein, 1,8-dihydroxyl-3-carboxyl anthraquinone], for which the inhibition at 5 µg/mL in the data set with HCV (setting [5]) is 44%. Further, the inhibition at 20 µg/mL with HCV (setting [5]) is 82%. In the data set on HCV, the “inhibition effect towards HCV” value is on record as “obvious inhibition effect”. The Cytotoxicity result in data set [1] (5 μg/ml) and in data set [1] (20 μg/ml) was “None” in each case.

For the compound `Cc1cc(O)c2c(c1)C(=O)c1cccc(O)c1C2=O` [Chrysophanic acid, 1,8-dihydroxyl-6-methyl anthraquinone], in the data set with HCV (setting [2]), the inhibition at 5 µg/mL was found to be 21%. Further, the inhibition at 10 µg/mL in the data set on HCV (setting [4]) was determined as 17%. Moreover, in the data set on HCV (setting [3]), the inhibition at 20 µg/mL amounted to 48%. Besides, the “inhibition effect towards HCV” value with HCV is “obvious inhibition effect”.

On to `COc1cc(O)c2c(c1)C(=O)c1cc(C)cc(O[C@@H]3OC(CO)[C@@H](O)C(O)C3O)c1C2=O` (stereo partly drawn) [Physcion-8-O-β-D-glucoside, physcion-8-O-β-D-glucoside], for which the inhibition at 100 µg/mL with HCV (setting [6]) came to 40%. The “inhibition effect towards HCV” value in the data set with HCV was “obvious inhibition effect”. The Cytotoxicity entry in data set [1] (100 μg/ml) is “None”.

In the case of `O=C1c2ccccc2C(=O)c2c1ccc(O)c2O` [Alizarin, 1,2-dihydroxyl-9,10-anthraquinone], the inhibition at 10 µg/mL with HCV (setting [5]) came to 31%. Besides, the “inhibition effect towards HCV” value with HCV is “obvious inhibition effect”. Besides, the Cytotoxicity entry in data set [1] (10 μg/ml) was “None”.

With `Cc1cc(O)c2c(c1)C(=O)c1cc(O)cc(O)c1C2=O` [Emodin, 1,3,8-dihydroxyl-6-methyl anthraquinone], in the data set with HCV (setting [2]), the inhibition at 5 µg/mL was found to be 52%. Moreover, the inhibition at 10 µg/mL with HCV (setting [4]) is 79%. Also, the inhibition at 20 µg/mL in the data set on HCV (setting [3]) worked out at 99%. Besides, in the data set with HCV, the “inhibition effect towards HCV” value was “obvious inhibition effect”.

Take `O=C1c2cccc(O)c2C(=O)c2c(O)cc(CO)cc21` [Aloe-emodin, 1,8-dihydroxyl-3-hydroxymethyl anthraquinone]: the inhibition at 5 µg/mL in the data set on HCV (setting [2]) was found to be 95%. In addition, the inhibition at 20 µg/mL with HCV (setting [3]) came to 100%. Besides, the “inhibition effect towards HCV” value in the data set with HCV is recorded as “obvious inhibition effect”.

As for `O=c1cc(-c2ccc(O)cc2)oc2cc(O)cc(O)c12` [Apigenin, reference compound], the inhibition at 5 µg/mL in the data set with HCV (setting [2]) is 11%. For the same compound, in the data set on HCV (setting [3]), the inhibition at 20 µg/mL was 47%.
